For series [1], the system named is human mammary cancer cells (MDA-MB-231). The note with it: 1 mM DIME [sic]; within 18 hours; cited from earlier work.
The test system is the same in series [2]. Kind of series: Growth of human mammary cancer cells (Table 2 A). In kind it is cell-based. The conditions noted are these: 2 μM. An excerpt:
(§1) The effects of these three substances on the growth of human mammary cancer cells (MDA-MB-231) and human lung cancer cells (A 549) are summarized in Table 2.
In section (a) of Table 2 the effects of DIME, DIPE and DIPP on the growth of mammary cancer cells, assayed at 48 and 72 hrs, is shown. […] The slightly lesser efficacy of DIPP could be predicted from earlier results obtained with DIME analogs (International Journal of Oncology, 1997, 10, 689-695, FIG. 1) where we have shown that extending the methyl to ethyl substitution (on the carboxyl ester) diminishes cytotoxicity against tumor cells. A similar phenomenon occurs when DIPE is extended to DIPP (i.e. from the ethanone to the propanone).
(§2) (×10^3) Cell number per 2 cm^2

Series [3] has as its system microtubule protein (MTP). Description: Microtubule assembly (MTP polymerization) in vitro, optical test at 350 nm. It counts as biochemical, bovine or rabbit (brain). The source says: This inhibition is critically dependent on the concentration of GTP. The quantitative correlation between the concentrations of DIME and GTP, under conditions of a linear rate of MTP polymerization, follows Michaelis-Menten kinetics and the inhibition portrays a "mixed" type, where km for GTP and Vmax are altered simultaneously. Chemical analogues of DIME inhibit MTP polymerization parallel to their antitumorigenic action in vivo. The MTP site is one of the early cellular response sites of DIME.
J. Oncol. Abnormal spindle structures could be the result of DIME-MTP interaction or reactions of DIME with components of the microtubule organizing center or with as yet undefined systems sequentially or in concert. Since time-dependent quantitative analysis of the MTP system in situ is unsuitable for initial velocity measurement we adapted the in vitro assembly system of neurotubules as a model for a quantitative analysis of the interaction of DIME with MTP. […] The time course of MTP assembly consists of initiation and propagation and termination steps, Gaskin, et al., 1974, "Turbidimetric studies of the in vitro assembly and disassembly of porcine neurotubules", J. Mol. Biol. 89:737-758. The rate of propagation under defined conditions is sufficiently linear to permit kinetic analysis, that can be evaluated with respect DIME and GTP concentrations. As we show here the inhibition of MTP assembly by DIME occurs in the same range of drug concentration as required to inhibit tumorigonesis in vivo, or to inhibit cell replication or induce eventual cell death; Mendeleyev, et al., 1997. "Structural specificity and tumoricidal action of methyl-3,5-diiodo-4-(4'-methoxyphenoxy)benzoate (DIME)" Int. J. Oncol., 10:689-695. Therefore the DIME-MTP interaction is most probably a component of the apparently pleiotropic cellular mechanism of action of DIME.
Preparation of MTP and an optical test for polymerization was adopted from published methods, Gaskin, et al., 1974, "Turbidimetric studies of the in vitro assembly and disassembly of porcine neurotubules", J. Mol. Biol. 89:737-758; Tiwari, et al., 1993, "A pH and temperature-dependent cycling method that doubles the yield of microtubule protein", Anal. Biochem. 215:96-103. Bovine or rabbit brain was homogenized in an equal volume of ice cold buffer containing 100 mM Pipes/K^+ (pH 7.4), 4 mM EGTA. 1 mM MgCl2, 0.5 mM DTT and 0.1 mM PMSF, and centrifuged at 39,000 g for 1 hour at 4° C. To the supernatant, DMSO (8% final concentration) and GTP (1 mM final concentration) were added, followed by incubation at 37° C. for 30 minutes. Microtubules were pelleted at 100,000 g at 37° C. for 30 minutes. The pellets were incubated on ice for 15 minutes, followed by resuspension in ice cold PEM buffer (100 mM Pipes/K+ (pH 6.9), 1 mM EGTA, 1 mM MgCl2). This warm polymerization and cold depolymerization cycle was repeated once more and the cold, resuspended monomeric MTP (8-10 mg/ml protein) was used for the optical test for polymerization kinetics. Both rabbit or bovine brain yielded identical MTP preparations.
The polymerization reaction was started by the addition of […] of MTP solution (equivalent to 0.8-1.0 mg protein) and initial linear rates of increase in absorbance at 350 nm followed and recorded at 37° C. in a Perkin-Elmer 552 double beam spectrophotometer, equipped with a thermostatically controlled cuvette holder.
It is apparent that the rate of MTP polymerization proceeds in a linear manner, thus conditions for maximal polymerization rates as defined by Berne, B, 1974, "Interpretation of light scattering from long rods", J. Mol. Biol. 89:755-758 appear fulfilled. Therefore it is possible to determine the quantitative correlation between [DIME] and [GTP] by comparing the linear rate in the presence of varying drug and activator concentrations.
The assay system consisted of 240 μl of PEM buffer containing 8% DMSO […]
(added in 3 μl), or solvent control and 0.6 mg MTP (60 μl). […]

Series [4] relates to human lung cancer cells (A 549). Kind of series: Growth of human lung cancer cells (Table 2 B). It counts as cell-based.
Text: as §1, §2

Another series relates to protein phosphatase 2A. The note with it: cited from earlier work.
The conditions of series [5]: oral, 1 g/Kg/day for two to three months; cited from earlier work.
The subject of another series is cellular esterases. Kind of series: Stability against cellular esterases. An excerpt: Moreover, amide analogs of DIME, having an NH2 or a substituted amino group, may be subject to hydrolysis catalyzed by cellular amidases. Since the hydrolysis product of such a hydrolysis is a carboxylic acid, the same decrease in efficacy can result. In order to decrease the chemical lability in the DIME pharmacophore structure, ketone analogues of DIME may be used.
A more detailed kinetic comparison of DIME, DIPE and DIPP on the kinetics of MTP assembly, in a concentration range of zero to 10 μM drug and a louvered GTP concentration (10 μM), is shown in FIG. 3.

Data on one compound can be found in patent publication US5922775A, “Method of treating malignant tumors with ketone thyroxine analogues having no significant hormonal activity” (priority 1997, dated 1999).

As usually defined, the Km is the substrate concentration at which the rate is half of its maximum.

Regarding `COC(=O)c1cc(I)c(Oc2ccc(OC)cc2)c(I)c1` [DIME, methyl 3,5-diiodo-4-(4'-methoxyphenoxy)benzoate], the abnormal spindle structures entry in series [1] is reported as “induced abnormal spindle structures”. Also, the Cell number is listed as 60 ×10^3 cell number per 2 cm^2 w in series [2] (48 hours, control 150); 65 ×10^3 cell number per 2 cm^2 w in series [2] (72 hours, control 300); 100 ×10^3 cell number per 2 cm^2 w in series [4] (2 μM, 48 hours, control 110); 180 ×10^3 cell number per 2 cm^2 w in series [4] (2 μM, 72 hours, control 190); 24 ×10^3 cell number per 2 cm^2 w in series [4] (5 μM + BNPP 150 μM (esterase inhibitor), 48 hours, control 110); 15 ×10^3 cell number per 2 cm^2 w in series [4] (5 μM + BNPP 150 μM (esterase inhibitor), 72 hours, control 190). Moreover, the Cell number was 72 ×10^3 cell number per 2 cm^2 w in series [4] (5 μM, 48 hours, control 110) and 135 ×10^3 cell number per 2 cm^2 w in series [4] (5 μM, 72 hours, control 190). Further, the “Percent inhibition of intitial velocity (microtubule assembly in vitro)” value in series [3] (10 μM drug, GTP 1 mM, 37° C., averages of duplicate assay) was found to be 93%. Further, the “change of km GTP” value in series [3] (1 mM DIME [sic]) is on record as around 50%. For the same compound, the “decrease of Vmax” value in series [3] (1 mM DIME [sic]) was around 50%. Further, in series [3] (1 mM DIME [sic], from 6.7 mM without drug, read-out: km GTP in presence of DIME), the Km came to 14 µM. Further, the “inhibition of MTP polymerization with increasing DIME” value in series [3] (1 mM GTP, increasing DIME concentrations) is on record as “progressively inhibit MTP polymerization”. Further, the “inhibition of GTP-dependent polymerization of MTP” value in series [3] (DIME at 1 to 5 mM as printed) is “inhibits the GTP-dependent polymerization of MTP”. Besides, the “type of inhibition of MTP polymerization (DIME vs GTP)” value in series [3] (double reciprocal plot / Michaelis-Menten, 1 mM DIME) is reported as “"mixed" type inhibition”. Further, the “inhibitory action on MTP assembly (comparison, FIG. 2)” value in series [3] (drug concentrations up to 20 μM) is “similar”. The “order of potency on MTP assembly (FIG. 3)” value in series [3] (zero to 10 μM drug, lowered GTP concentration (10 μM)) is given as “DIME>DIPE>DIPP”. In addition, the “effect of esterase inhibitor BNPP on cytocidal action” value in series [4] (lung cancer cells, with BNPP) is on record as “the esterase inhibitor supported the DIME effect (at 72 hrs)”. In addition, the “activation of protein phosphatase 2A” value in the series with protein phosphatase 2A is “directly activates protein phosphatase 2A”. The toxicity entry in series [5] is “not toxic”. Further, the stability against esterases entry in the series on cellular esterases was “labile with respect to hydrolysis catalyzed by cellular esterases”.
